Laboratory results: US9221814B2, “Heterocyclic guanidine F1F0-atpase inhibitors and therapeutic uses thereof” (Lycera Corporation, priority 2012, dated 2015)
Where two headings read alike, the source gives them in different places.

What was measured:
F1F0-ATPase = molecular target: T1, F1F0-ATPase (Bos taurus, UniProt P13621); assay: Inhibition of F1F0-ATPase activity in synthesizing ATP (ATP synthesis inhibition); assay type: biochemical; conditions: detection limit IC50=16 μM, read-out: ATP Syn IC50
T1 construct: from tissue
Protocol: (§1) Exemplary compounds described in above Examples were tested for activity against F1F0-ATPase by measuring the ability of the compounds to inhibit ATP synthesis. In addition, the compounds were assessed for cytotoxicity in Ramos cells. Inhibition of F1F0-ATPase activity in synthesizing ATP and cytotoxicity in Ramos cells were measured according to the procedures described in K. M. Johnson et al. Chemistry & Biology 2005, 12, 485-496.

Ramos cells = assay: Cytotoxicity in Ramos cells; assay type: cell-based; conditions: detection limit EC50=16 μM, read-out: Ramos Cell EC50
Protocol: as §1

SMILES	IC50 (F1F0-ATPase) [µM]	EC50 (Ramos cells) [µM]	EC50 (Ramos cells; Homo sapiens) [µM]
Cc1cc(C(=O)/N=C(\Nc2cc(-c3cc(F)cc(F)c3)[nH]n2)NC(C)(C)C)c(C(F)(F)F)o1 [Compound A-114]	5 to 16	5 to 16	
Cc1cc(C(=O)/N=C(/Nc2cc(F)cc(Cl)c2)Nc2cc(-c3cc(F)cc(F)c3)[nH]n2)c(C(F)(F)F)o1 [Compound A-115]	< 5	5 to 16	
Cc1cc(C(=O)/N=C(/NCC(C)C)Nc2cc(-c3cc(F)cc(F)c3)[nH]n2)c(C(F)(F)F)o1 [Compound A-116]	< 5	< 5	
Cc1cc(C(=O)/N=C(\Nc2cc(-c3cc(F)cc(F)c3)[nH]n2)NC(C)C)c(C(F)(F)F)o1 [Compound A-117]	< 5	5 to 16	
COC[C@H](C)N/C(=N/C(=O)c1cc(C)oc1C(F)(F)F)Nc1cc(-c2cc(F)cc(F)c2)n[nH]1 [Compound A-118]	< 5	5 to 16	
Cc1nc(C(=O)/N=C(\Nc2cc(-c3ccc(F)cc3)[nH]n2)NC(C)(C)C)c(C(F)(F)F)o1 [Compound A-119]	< 5	5 to 16	
Cc1nnsc1C(=O)/N=C(/NCC(C)C)Nc1cc(-c2ccc(F)cc2)[nH]n1 [Compound A-120]	> 16	> 16	
CCOCCN/C(=N/C(=O)c1snnc1C)Nc1cc(-c2ccc(F)cc2)[nH]n1 [Compound A-121]	> 16	> 16	
Cc1nnsc1C(=O)/N=C(\Nc1cc(-c2ccc(F)cc2)[nH]n1)NC1CCCC1 [Compound A-122]	> 16	> 16	
Cc1oncc1C(=O)/N=C(/NCC(C)C)Nc1cc(-c2ccc(F)cc2)[nH]n1 [Compound A-123]	> 16	> 16	
Cc1oncc1C(=O)N=C(Nc1cc(-c2ccc(F)cc2)n[nH]1)NC1CCCC1 [Compound A-124]	> 16		> 16
Cc1oncc1C(=O)/N=C(\Nc1cc(-c2ccc(F)cc2)[nH]n1)NC1CCC1 [Compound A-125]	> 16	> 16	
CCOC(=O)NC1CCC(N/C(=N\C(=O)c2cc(C)oc2C(F)(F)F)NCc2ccc(F)cc2Cl)CC1 (centres unmarked) [Compound A-126]	< 5		< 5
CCOC(=O)NC1CCC(N/C(=N\C(=O)c2cc(C)oc2C(F)(F)F)Nc2cc(F)cc(Cl)c2)CC1 (centres unmarked) [Compound A-127]	< 5		< 5
COc1ccc(-c2cc(N/C(=N\C(=O)c3cn(C)nc3C(F)(F)F)NC(C)(C)C)n[nH]2)cc1F [Compound A-128]	5 to 16	< 5	
COc1ccc(-c2cc(N/C(=N\C(=O)c3cn(C)nc3C(F)(F)F)NC3CCCC3)n[nH]2)cc1F [Compound A-129]	5 to 16	< 5	
COc1ccc(-c2cc(NC(=NC(=O)c3cn(C)nc3C(F)(F)F)NCC(C)(C)C)[nH]n2)cc1F [Compound A-130]	< 5		< 5
COc1ccc(-c2cc(N/C(=N\C(=O)c3cn(C)nc3C(F)(F)F)Nc3cc(F)cc(Cl)c3)n[nH]2)cc1F [Compound A-131]	< 5	> 16	
COC[C@H](C)N/C(=N/C(=O)c1cn(C)nc1C(F)(F)F)Nc1cc(-c2ccc(OC)c(F)c2)n[nH]1 [Compound A-132]	5 to 16	5 to 16	
COc1ccc(-c2cc(N/C(=N\C(=O)c3cn(C)nc3C(F)(F)F)NCC(C)C)n[nH]2)cc1F [Compound A-133]	< 5	< 5	
Cn1cc(C(=O)/N=C(\Nc2cc(-c3ccc(O)c(F)c3)[nH]n2)NC2CCCC2)c(C(F)(F)F)n1 [Compound A-134]	5 to 16	> 16	
Cn1cc(C(=O)/N=C(/NCC(C)(C)C)Nc2cc(-c3ccc(O)c(F)c3)[nH]n2)c(C(F)(F)F)n1 [Compound A-135]	5 to 16	< 5	
Cn1cc(C(=O)/N=C(\Nc2cc(-c3ccc(O)cc3F)[nH]n2)NC(C)(C)C)c(C(F)(F)F)n1 [Compound A-136]	< 5	< 5	
Cn1cc(C(=O)N=C(Nc2cc(-c3ccc(O)cc3F)n[nH]2)NC2CCCC2)c(C(F)(F)F)n1 [Compound A-137]	> 16		> 16
Cn1cc(C(=O)/N=C(/NCC(C)(C)C)Nc2cc(-c3ccc(O)cc3F)[nH]n2)c(C(F)(F)F)n1 [Compound A-138]	> 16	> 16	
Cn1cc(C(=O)/N=C(/Nc2cccc(F)c2)Nc2cc(-c3ccc(O)cc3F)[nH]n2)c(C(F)(F)F)n1 [Compound A-139]	< 5	< 5	
COC[C@H](C)N/C(=N/C(=O)c1cn(C)nc1C(F)(F)F)Nc1cc(-c2ccc(O)cc2F)n[nH]1 [Compound A-140]	> 16	> 16	
Cn1cc(C(=O)/N=C(\Nc2n[nH]c3cncc(F)c23)NC(C)(C)C)c(C(F)(F)F)n1 [Compound A-141]	5 to 16	5 to 16	

SMILES	IC50 (F1F0-ATPase) [µM]	EC50 (Ramos cells) [µM]	EC50 (Ramos cells; Homo sapiens) [µM]
COCC(C)NC(=NC(=O)c1cn(C)nc1C(F)(F)F)Nc1n[nH]c2cncc(F)c12 (centres unmarked) [Compound A-142]	> 16		5 to 16
CC(C)CNC(=NC(=O)c1cn(C)nc1C(F)(F)F)Nc1n[nH]c2cncc(F)c12 [Compound A-143]	> 16		5 to 16
Cn1cc(C(=O)/N=C(/NCC(C)(C)C)Nc2n[nH]c3cncc(F)c23)c(C(F)(F)F)n1 [Compound A-144]	5 to 16	> 16	
COc1ccc(F)c(-c2cc(N/C(=N\C(=O)c3cn(C)nc3C(F)(F)F)NC(C)(C)C)n[nH]2)c1 [Compound A-145]	5 to 16	5 to 16	
COc1ccc(-c2cc(N/C(=N\C(=O)c3cn(C)nc3C(F)(F)F)NC(C)C)n[nH]2)cc1F [Compound A-146]	5 to 16	< 5	
COc1ccc(-c2cc(N/C(=N\C(=O)c3cn(C)nc3C(F)(F)F)Nc3ccc(F)cc3Cl)[nH]n2)cc1F [Compound A-147]	< 5	> 16	
COc1ccc(-c2cc(N/C(=N\C(=O)c3cn(C)nc3C(F)(F)F)Nc3ccc(C(C)(C)C)cc3)[nH]n2)cc1F [Compound A-148]	5 to 16	5 to 16	
CC(C)N/C(=N/C(=O)c1cn(C)nc1C(F)(F)F)Nc1cc(-c2ccc(O)cc2F)n[nH]1 [Compound A-149]	> 16	> 16	
Cn1cc(C(=O)N=C(Nc2ccc(F)cc2)Nc2cc(-c3ccc(O)cc3F)n[nH]2)c(C(F)(F)F)n1 [Compound A-150]	< 5		< 5
Cn1cc(C(=O)/N=C(/Nc2ccc(C(C)(C)C)cc2)Nc2cc(-c3ccc(O)cc3F)n[nH]2)c(C(F)(F)F)n1 [Compound A-151]	< 5	< 5	
CC(C)N/C(=N/C(=O)c1cn(C)nc1C(F)(F)F)Nc1cc(-c2ccc(O)c(F)c2)n[nH]1 [Compound A-152]	5 to 16	5 to 16	
Cn1cc(C(=O)/N=C(\Nc2cc(-c3ccc(O)c(F)c3)n[nH]2)Nc2ccc(F)cc2Cl)c(C(F)(F)F)n1 [Compound A-153]	< 5	< 5	
COc1ccc(-c2cc(N/C(=N\C(=O)c3cn(C)nc3C(F)(F)F)Nc3cccc(Cl)c3)[nH]n2)cc1F [Compound A-154]	< 5	> 16	
COc1ccc(-c2cc(NC(=NC(=O)c3cn(C)nc3C(F)(F)F)Nc3ccc(F)c(Cl)c3)[nH]n2)cc1F [Compound A-155]	< 5		> 16
COc1ccc(-c2cc(N/C(=N\C(=O)c3cn(C)nc3C(F)(F)F)Nc3ccc(F)cc3)[nH]n2)cc1F [Compound A-156]	< 5	> 16	
COc1ccc(-c2cc(N/C(=N\C(=O)c3cn(C)nc3C(F)(F)F)Nc3cccc(F)c3)[nH]n2)cc1F [Compound A-157]	< 5	5 to 16	
COc1ccc(-c2cc(N/C(=N\C(=O)c3cn(C)nc3C(F)(F)F)Nc3ccccc3C(C)(C)C)[nH]n2)cc1F [Compound A-158]	< 5	> 16	
COc1ccc(-c2cc(N/C(=N\C(=O)c3cn(C)nc3C(F)(F)F)Nc3ccccc3C(F)(F)F)[nH]n2)cc1F [Compound A-159]	5 to 16	> 16	
COc1ccc(-c2cc(N/C(=N\C(=O)c3cn(C)nc3C(F)(F)F)Nc3cc(Cl)ccc3F)[nH]n2)cc1F [Compound A-160]	5 to 16	> 16	
COc1ccc(-c2cc(N/C(=N\C(=O)c3cn(C)nc3C(F)(F)F)Nc3ccc(F)cc3F)[nH]n2)cc1F [Compound A-161]	< 5	> 16	
Cn1cc(C(=O)/N=C(/Nc2cccc(Cl)c2)Nc2cc(-c3ccc(O)c(F)c3)n[nH]2)c(C(F)(F)F)n1 [Compound A-162]	< 5	< 5	
Cn1cc(C(=O)/N=C(/Nc2ccc(F)c(Cl)c2)Nc2cc(-c3ccc(O)c(F)c3)n[nH]2)c(C(F)(F)F)n1 [Compound A-163]	< 5	< 5	
Cn1cc(C(=O)/N=C(/Nc2ccc(F)cc2)Nc2cc(-c3ccc(O)c(F)c3)n[nH]2)c(C(F)(F)F)n1 [Compound A-164]	< 5	< 5	
Cn1cc(C(=O)/N=C(/Nc2ccc(C(C)(C)C)cc2)Nc2cc(-c3ccc(O)c(F)c3)n[nH]2)c(C(F)(F)F)n1 [Compound A-165]	< 5	< 5	
Cn1cc(C(=O)/N=C(/Nc2cccc(F)c2)Nc2cc(-c3ccc(O)c(F)c3)n[nH]2)c(C(F)(F)F)n1 [Compound A-166]	< 5	< 5	
Cn1cc(C(=O)/N=C(\Nc2cc(-c3ccc(O)c(F)c3)n[nH]2)Nc2ccccc2C(C)(C)C)c(C(F)(F)F)n1 [Compound A-167]	< 5	< 5	
Cn1cc(C(=O)N=C(Nc2cc(-c3ccc(O)c(F)c3)n[nH]2)Nc2cc(Cl)ccc2F)c(C(F)(F)F)n1 [Compound A-168]	< 5		5 to 16
